Assay results from US20090030024A1, “THIAZOLES AS FUNGICIDES” (priority 2005, published 2009).

Assay: logP determination by retention times (calibration with alkan-2-ones)
Conditions: * HPLC reversed-phase C18, 40° C., mobile phase 0.1% aqueous formic acid and acetonitrile, linear gradient 10% to 95% acetonitrile

SMILES	chromatographic logP	logP
CCc1nc(C)c(-c2ccnc(N(C(=O)OC)c3ccccc3)n2)s1 [Example 732, methyl-[4-(2-ethyl-4-methyl-1,3-thiazol-5-yl)pyrimidin-2-yl]phenylcarbamate]	2.59	
CCCC(=O)c1ccc(Nc2nccc(-c3sc(CC)nc3C)n2)cc1 [Example 733, 1-(4-{[4-(2-ethyl-4-methyl-1,3-thiazol-5-yl)pyrimidin-2-yl]amino}phenyl)butan-1-one]	3.5	
CC(=O)c1cccc(Nc2nccc(-c3sc(-c4cccnc4)nc3C)n2)c1 [Example 734, 1-(3-{[4-(4-methyl-2-pyridin-3-yl-1,3-thiazol-5-yl)pyrimidin-2-yl]amino}phenyl)ethanone]	2.56	
COc1cc(Nc2nccc(-c3sc(N4CCOCC4)nc3C)n2)cc(OC)c1OC [Example 735, 4-(4-methyl-2-morpholin-4-yl-1,3-thiazol-5-yl)-N-(3,4,5-trimethoxyphenyl)pyrimidine-2-amine]	2.07	
CC(=O)c1cccc(Nc2nccc(-c3sc(N4CCOCC4)nc3C)n2)c1 [Example 736, 1-(3-{[4-(4-methyl-2-morpholin-4-yl-1,3-thiazol-5-yl)pyrimidin-2-yl]amino}phenyl)ethanone]	2.16	
COCC(C)Nc1nc(C)c(-c2ccnc(Nc3ccc(N)cc3)n2)s1 (centres unmarked) [Example 737, N-(4-{2-[(2-methoxy-1-methylethyl)amino]-4-methyl-1,3-thiazol-5-yl}pyrimidin-2-yl)benzene-1,4-diamine]	1.68	
COCCCNc1nc(C)c(-c2ccnc(Nc3cccc(C(C)=O)c3)n2)s1 [Example 738, 1-{3-[(4-{2-[(3-methoxypropyl)amino]-4-methyl-1,3-thiazol-5-yl}pyrimidin-2-yl)amino]phenyl}ethanone]	1.75	
Cc1nc(N2CCOCC2)sc1-c1ccnc(Nc2cccc(Cl)c2)n1 [Example 745, N-(3-chlorophenyl)-4-(4-methyl-2-morpholin-4-yl-1,3-thiazol-5-yl)pyrimidine-2-amine]	2.99	
CNc1nc(C)c(-c2ccnc(Nc3ccc(O)cc3)n2)s1 [Example 746, 4-({4-[4-methyl-2-(methylamine)-1,3-thiazol-5-yl]pyrimidin-2-yl}amino)phenol]		1.11*
CCc1nc(C)c(-c2ccnc(Nc3cncc(C)c3)n2)s1 [Example 747, 4-(2-ethyl-4-methyl-1,3-thiazol-5-yl)-N-(5-methylpyridin-3-yl)pyrimidine-2-amine]	1.41	
CCc1nc(C)c(-c2ccnc(Nc3ccc(N4CCCC4=O)cc3)n2)s1 [Example 748, 1-(4-{[4-(2-ethyl-4-methyl-1,3-thiazol-5-yl)pyrimidin-2-yl]amino}phenyl)pyrrolidin-2-one]	2.24	
Cc1nc(C)c(-c2ccnc(Nc3ccc(N4CCCC4=O)cc3)n2)s1 [Example 749, 1-(4-{[4-(2,4-dimethyl-1,3-thiazol-5-yl)pyrimidin-2-yl]amino}phenyl)pyrrolidin-2-one]	1.99	
COCCNc1nc(C)c(-c2ccnc(Nc3ccc(F)c(C)c3)n2)s1 [Example 750, N-(4-fluoro-3-methylphenyl)-4-{2-[(2-methoxyethyl)amino]-4-methyl-1,3-thiazol-5-yl}pyrimidine-2-amine]	2.04	
COCCNc1nc(C)c(-c2ccnc(Nc3ccc(C(C)=O)cc3)n2)s1 [Example 751, 1-{4-[(4-{2-[(2-methoxyethyl)amino]-4-methyl-1,3-thiazol-5-yl}pyrimidin-2-yl)amino]phenyl}ethanone]	1.72	
COCCNc1nc(C)c(-c2ccnc(Nc3ccc(N4CCCC4=O)cc3)n2)s1 [Example 752, 1-{4-[(4-{2-[(2-methoxyethyl)amino]-4-methyl-1,3-thiazol-5-yl}pyrimidin-2-yl)amino]phenyl}pyrrolidin-2-one]	1.51	
CNc1nc(C)c(-c2ccnc(Nc3ccc(OC(C)=O)cc3)n2)s1 [Example 754, 4-({4-[4-methyl-2-(methylamine)-1,3-thiazol-5-yl]pyrimidin-2-yl}amino)phenylacetate]		1.73*
CCc1nc(C)c(-c2ccnc(Nc3ccc(F)c(F)c3)n2)s1 [Example 755, N-(3,4-difluorophenyl)-4-(2-ethyl-4-methyl-1,3-thiazol-5-yl)pyrimidine-2-amine]	3.44	
Cc1nc(C)c(-c2ccnc(Nc3ccc(F)c(F)c3)n2)s1 [Example 756, N-(3,4-difluorophenyl)-4-(2,4-dimethyl-1,3-thiazol-5-yl)pyrimidine-2-amine]	2.99	
Cc1nc(C(F)F)c(-c2ccnc(Nc3cccc(Cl)c3)n2)s1 [Example 757, N-(3-chlorophenyl)-4-[4-(difluoromethyl)-2-methyl-1,3-thiazol-5-yl]pyrimidine-2-amine]	1.41	

SMILES	chromatographic logP	logP
Cc1nc(C(F)F)c(-c2ccnc(Nc3ccc(CNC(=O)OC(C)(C)C)cc3)n2)s1 [Example 758, tert-butyl-[4-({4-[4-(difluoromethyl)-2-methyl-1,3-thiazol-5-yl]pyrimidin-2-yl}amino)benzyl]carbamate]	3.2	
CCc1nc(C)c(-c2ccnc(Nc3ccc(F)cc3F)n2)s1 [Example 760, N-(2,4-difluorophenyl)-4-(2-ethyl-4-methyl-1,3-thiazol-5-yl)pyrimidine-2-amine]	3.27	
Cc1nc(N(C)C)sc1-c1ccnc(Nc2ccc(N3CCCC3=O)cc2)n1 [Example 761, 1-[4-({4-[2-(dimethylamine)-4-methyl-1,3-thiazol-5-yl]pyrimidin-2-yl}amino)phenyl]pyrrolidin-2-one]		1.6*
CC(=O)Nc1cccc(Nc2nccc(-c3sc(N(C)C)nc3C)n2)c1 [Example 762, N-[3-({4-[2-(dimethylamine)-4-methyl-1,3-thiazol-5-yl]pyrimidin-2-yl}amino)phenyl]acetamide]		1.42*
COCc1nc(C)c(-c2ccnc(Nc3ccc(O)cc3)n2)s1 [Example 763, 4-({4-[2-(methoxymethyl)-4-methyl-1,3-thiazol-5-yl]pyrimidin-2-yl}amino)phenol]	1.8	
COCc1nc(C)c(-c2ccnc(Nc3cc(OC)cc(OC)c3)n2)s1 [Example 764, N-(3,5-dimethoxyphenyl)-4-[2-(methoxymethyl)-4-methyl-1,3-thiazol-5-yl]pyrimidine-2-amine]	2.73	
COCCCOC(=O)c1ccc(Nc2nccc(-c3sc(COC)nc3C)n2)cc1 [Example 765, 3-methoxypropyl-4-({4-[2-(methoxymethyl)-4-methyl-1,3-thiazol-5-yl]pyrimidin-2-yl}amino)benzoate]	2.63	
CCCc1nc(C)c(-c2ccnc(Nc3ccccc3)n2)s1 [Example 766, 4-(4-methyl-2-propyl-1,3-thiazol-5-yl)-N-phenylpyrimidine-2-amine]	3.49	
CCCc1nc(C)c(-c2ccnc(Nc3cccc(C(C)=O)c3)n2)s1 [Example 767, 1-(3-{[4-(4-methyl-2-propyl-1,3-thiazol-5-yl)pyrimidin-2-yl]amino}phenyl)ethanone]	3.04	
CCCc1nc(C)c(-c2ccnc(Nc3cc(OC)c(OC)c(OC)c3)n2)s1 [Example 768, 4-(4-methyl-2-propyl-1,3-thiazol-5-yl)-N-(3,4,5-trimethoxyphenyl)pyrimidine-2-amine]	2.93	
CC(=O)c1ccc(Nc2nccc(-c3sc(N(C)C)nc3C(F)(F)F)n2)cc1 [Example 769, 1-[4-({4-[2-(dimethylamine)-4-(trifluoromethyl)-1,3-thiazol-5-yl]pyrimidin-2-yl}amino)phenyl]ethanone]		3.44*
CN(C)c1nc(C(F)(F)F)c(-c2ccnc(Nc3ccc(N4CCCC4=O)cc3)n2)s1 [Example 770, 1-[4-({4-[2-(dimethylamine)-4-(trifluoromethyl)-1,3-thiazol-5-yl]pyrimidin-2-yl}amino)phenyl]pyrrolidin-2-one]		2.99*
COCC(C)Nc1nc(C)c(-c2ccnc(Nc3cccc(N4CCCC4=O)c3)n2)s1 (centres unmarked) [Example 772, 1-{3-[(4-{2-[(2-methoxy-1-methylethyl)amino]-4-methyl-1,3-thiazol-5-yl}pyrimidin-2-yl)amino]phenyl}pyrrolidin-2-one]	1.68	
Cc1nc(N(C)C)sc1-c1ccnc(Nc2ccc3c(c2)OC(F)(F)C(F)(F)O3)n1 [Example 774, 4-[2-(dimethylamine)-4-methyl-1,3-thiazol-5-yl]-N-(2,2,3,3-tetrafluoro-2,3-dihydro-1,4-benzodioxin-6-yl)pyrimidine-2-amine]		3.6*
CN(C)c1nc(C(F)(F)F)c(-c2ccnc(Nc3cccc(N4CCCC4=O)c3)n2)s1 [Example 775, 1-[3-({4-[2-(dimethylamine)-4-(trifluoromethyl)-1,3-thiazol-5-yl]pyrimidin-2-yl}amino)phenyl]pyrrolidin-2-one]		3.07*
CN(C)c1nc(C(F)(F)F)c(-c2ccnc(Nc3ccc(F)cc3)n2)s1 [Example 777, 4-[2-(dimethylamine)-4-(trifluoromethyl)-1,3-thiazol-5-yl]-N-(4-fluorophenyl)pyrimidine-2-amine]		3.96*
CN(C)c1nc(C(F)(F)F)c(-c2ccnc(Nc3ccc(I)cc3)n2)s1 [Example 778, 4-[2-(dimethylamine)-4-(trifluoromethyl)-1,3-thiazol-5-yl]-N-(4-iodophenyl)pyrimidine-2-amine]		4.88*
CN(C)c1nc(C(F)(F)F)c(-c2ccnc(Nc3ccc4c(c3)OC(F)(F)O4)n2)s1 [Example 779, N-(2,2-difluoro-1,3-benzodioxol-5-yl)-4-[2-(dimethylamine)-4-(trifluoromethyl)-1,3-thiazol-5-yl]pyrimidine-2-amine]		4.72*
CN(C)c1nc(C(F)(F)F)c(-c2ccnc(Nc3ccc4c(c3)OC(F)(F)C(F)(F)O4)n2)s1 [Example 780, 4-[2-(dimethylamine)-4-(trifluoromethyl)-1,3-thiazol-5-yl]-N-(2,2,3,3-tetrafluoro-2,3-dihydro-1,4-benzodioxin-6-yl)pyrimidine-2-amine]		5.28*
